The results in this text go back to BindingDB's records for doi:10.1021/jm000484+ (Abbott Laboratories, 2001).

Broadly, the EC50 is the concentration that produces a half-maximal response. Higher therefore signals a need for much substance. Broadly, the IC50 is the concentration at which inhibition is half-maximal. Lower therefore signals greater potency.

Experiment [1] is described as follows: In vitro immunosuppression in stimulated T cells expressing Voltage-gated potassium channel subunit Kv1.3.
Experiment [2] in a line: In vitro immunosuppression in stimulated T cells expressing Voltage-gated potassium channel subunit Kv1.3; Range is 1-10.

As to `CCC/N=c1\ccn(Cc2ccccc2)c2cc(Cl)ccc12`, the EC50 in experiment [1] is 1000 nM. `CCNC(=O)c1cc(/C=C/CCc2ccccc2)ccc1-c1ccc(Cl)cc1` [4'-Chloro-4-((E)-4-phenyl-but-1-enyl)-biphenyl-2-carboxylic acid ethylamide] showed an IC50 in experiment [2] of 1000 nM.
